# Measured values reported in patent US8337809B2, “Charge-assembled capsules for phototherapy” (William Marsh Rice University, priority 2006, dated 2012).
# Assays:
# [1] = Laser-induced photothermal experiments (808 nm NIR diode laser)
# Description: (§1) Washed ICG-NACs (0.5 mL, ˜1×10^7 particles/mL, ˜1×10^9 ICG molecules/particles, 0.007 wt % ICG of suspension) were suspended in PBS solution and placed in the wells of a 24 well polystyrene culture dish. Control samples were a 0.007 wt % PBS solution of ICG and PBS solution. Containing 0.5 mL of aqueous suspension or solution, each well was irradiated with a continuous-wave near-infrared diode laser (Coherent FAP-System, 54 W, λ=808 nm, irradiance (Io)) 155 W/cm^2) for various time intervals. The laser beam impinged on the sample with a 6.66 mm diameter. During irradiation, the sample temperature was monitored with a K-type thermocouple (bead diameter) 0.003 in., Omega Engineering) located 1 mm outside the laser spot and recorded using LabVIEW data acquisition software (National Instruments, Austin, Tex.). For the SEM study, 5 identical batches were prepared and irradiated for various times. Each sample was then washed twice with Nanopure water and dried at room temperature for SEM imaging. Viability Assessment of Cells Exposed to ICG-NACs. […] Cell survival was quantified using the Live/Dead viability assay (Molecular Probes). Dead cells were differentiated from live cells through fluorescence microscopy, as the former emitted red fluorescence (from the ethidium homodimer-1 dye precursor) and the latter emitted green fluorescence (from the calcein acetoxymethyl ester dye precursor). […]
# [2] = test system: animal subjects; details: cited from earlier work
# [3] = test system: fibroblasts (rat maxillary incisor pulp cells (RPC-C2A)); assay: Viability assessment of cells exposed to ICG-NACs (Live/Dead viability assay); assay type: cell-based
# Description: as §1
# [4] = cited from earlier work
# [5] = ICG leakage measurements / thermal degradation in PBS; assay type: physicochemical; details: 37° C.
# Description: The synthesis of ICG-NACs with ICG/PAH=0.04 was scaled up by 10 times. After washing with PBS solution, the precipitate was dispersed in PBS solution (2.6 mL) and split into 0.25 mL aliquots kept under constant shaking in the dark at either 23 or 37° C. Because of the long time scale of this study and the sensitivity of ICG to degradation in water, the suspension fluid was not analyzed for released ICG. Instead, the ICG contained within the ICG-NACs was quantified by inducing the disassembly of the ICG-NACs and immediately measuring the ICG concentration. Specifically, after a given aging time, each aliquot was centrifuged for 30 min and the concentrated precipitate suspension ([…]) was combined with 2.5 mL HNO3 solution (2 wt %). The resulting clear solution was then analyzed through UV-vis spectroscopy. As control samples, fresh ICG solution in PBS was prepared with a concentration close to that of the disassembled NAC solution (˜0.04 mg/mL) and incubated at 23 and 37° C. The samples were kept in the dark during aging.
# The ICG content of ICG-NACs (ICG/amine ratio=0.04) was quantified as a function of time by dis-assembling the capsules and measuring the absorbance of free ICG concentration at 780 nm (FIG. 9). For ICG-NACs at 23° C., more than 96% of ICG was retained. […]
# [6] = ICG concentration 0.001 mg/ml at 42° C.; cited from earlier work
structure (smiles),measurement,setting,value
"CC1(C)C(/C=C/C=C/C=C/C=C2\N(CCCCS(=O)(=O)O)c3ccc4ccccc4c3C2(C)C)=[N+](CCCCS(=O)(=O)[O-])c2ccc3ccccc3c21 [ICG, indocyanine green]",photothermal heating response,"[1]; constant 808 nm irradiation, compared with ICG-NACs",very similar heating curve
same,irradiation/cooling cycles in which the target temperature was reached,"[1]; irradiated to ~51-54° C. (ICG-NACs 55° C.), cooled to 30° C., repeated, photodegradation stability",4 cycles
same,semilethal dose LD50,[2],50 to 80 mg/kg
same,toxicity to fibroblast cells,[3],non-toxic
same,half-life of rapid clearance from the circulatory system,[4]; initial fast phase,3 to 4 min
same,half-life of much slower clearance rate,"[4]; second, slower phase",≥ 1 h
same,ICG lost at the end of 8 hr,"[5]; PBS, dark, capsules ICG/amine ratio=0.04, free ICG ~0.04 mg/mL",~35%
same,half-life,"[5]; ICG solution in PBS, free ICG in PBS, calculated",19 h
same,published half-life of ICG,[6],~10 h
